Patent publication US20140228287A1, “1-[(3-CYANO-PYRIDIN-2-YL)METHYL]-3-METHYL-7-(2-BUTYN-1-YL)-8-[3-(R)-AMINO-PIPERIDIN-1-YL]-AXANTHINE FOR THE TREATMENT OF A METABOLIC DISORDER OF A PREDOMINANTLY CARNIVOROUS NON-HUMAN ANIMAL” (BOEHRINGER INGELHEIM VETMEDICA GMBH, priority 2010, published 2014)
Counter-ions that a name gives are not always drawn. Like-named read-outs stand apart in the source and are kept apart here.

Molecular target: T1, DPP IV (Felis catus, UniProt Q9N2I7)
T1 construct: Blood samples for the determination of this compound and DPP IV activity were collected; from tissue; host or cells: plasma of domestic short hair / purpose-bred cats dosed orally
Assay: Exploratory multiple dose PK/PD (1.0/3.0/9.0 mg/animal, 14 days) in cats: DPP IV activity
Format: in vivo, cat
Conditions: for response vs control in vivo at 1 mg/animal: head 1 mg/animal (title 1.0 mg/animal); for response vs control in vivo at 1 mg/animal / response vs control in vivo at 3 mg/animal / response vs control in vivo at 9 mg/animal: read-out: DPP IV activity in cat plasma; for response vs control in vivo at 3 mg/animal: head 3 mg/animal (title 3.0 mg/animal)
Procedure: The aim of this study was to investigate the PK/PD effects of 1-[(3-cyano-pyridin-2-yl)methyl]-3-methyl-7-(2-butyn-1-yl)-8-[3-(R)-amino-piperidin-1-yl]-xanthine in cats following repeated oral administration of 0, 1, 3 and 9 mg/animal over 14 days corresponding to a dose of 0, 0.25, 0.75 and 2.25 mg/kg body weight for a cat weighing 4 kg. (Dosages were based on the free base: 1 mg 1-[(3-cyano-pyridin-2-yl)methyl]-3-methyl-7-(2-butyn-1-yl)-8-[3-(R)-amino-piperidin-1-yl]-xanthine monohydrochloride corresponds to 0.923 mg 1-[(3-cyano-pyridin-2-yl)methyl]-3-methyl-7-(2-butyn-1-yl)-8-[3-(R)-amino-piperidin-1-yl]-xanthine free base).
For this purpose, twelve clinically healthy male adult domestic short hair cats with a body weight range of 3.5-4.8 kg were used. The animals were randomly allocated to 4 groups, 3 animals per group. All animals were treated once daily orally for 14 days (i.e. on days 0-13). The test article was administered via capsules at doses of 1 (group II), 3 (group III) or 9 (group IV) mg of the monohydrochloride compound per animal; group I received placebo serving as controls. Blood samples for PK and PD (DPP IV activity) investigations were drawn at 0 h (i.e. prior to the 1st treatment), 0.5, 1, 2, 4, 8, 12 and 24 h after the 1st treatment as well as 24 h after the 3rd, 5th, 7th, 9th, 11th and 13th treatment and 0.5, 1, 2, 4, 8, 12 and 24 h after the 14th treatment.

[1] = 72 h, once daily oral 14 days, 72 h
[2] = 120 h, once daily oral 14 days, 120 h
[3] = 168 h, once daily oral 14 days, 168 h
[4] = 216 h, once daily oral 14 days, 216 h
[5] = 264 h, once daily oral 14 days, 264 h
[6] = 312 h, once daily oral 14 days, 312 h
[7] = 312.5 h, once daily oral 14 days, 312.5 h
[8] = 313 h, once daily oral 14 days, 313 h
[9] = 314 h, once daily oral 14 days, 314 h
[10] = 316 h, once daily oral 14 days, 316 h
[11] = 320 h, once daily oral 14 days, 320 h
[12] = 324 h, once daily oral 14 days, 324 h
[13] = 336 h, once daily oral 14 days, 336 h

T1 sequence (Q9N2I7 38-765 limits assumed): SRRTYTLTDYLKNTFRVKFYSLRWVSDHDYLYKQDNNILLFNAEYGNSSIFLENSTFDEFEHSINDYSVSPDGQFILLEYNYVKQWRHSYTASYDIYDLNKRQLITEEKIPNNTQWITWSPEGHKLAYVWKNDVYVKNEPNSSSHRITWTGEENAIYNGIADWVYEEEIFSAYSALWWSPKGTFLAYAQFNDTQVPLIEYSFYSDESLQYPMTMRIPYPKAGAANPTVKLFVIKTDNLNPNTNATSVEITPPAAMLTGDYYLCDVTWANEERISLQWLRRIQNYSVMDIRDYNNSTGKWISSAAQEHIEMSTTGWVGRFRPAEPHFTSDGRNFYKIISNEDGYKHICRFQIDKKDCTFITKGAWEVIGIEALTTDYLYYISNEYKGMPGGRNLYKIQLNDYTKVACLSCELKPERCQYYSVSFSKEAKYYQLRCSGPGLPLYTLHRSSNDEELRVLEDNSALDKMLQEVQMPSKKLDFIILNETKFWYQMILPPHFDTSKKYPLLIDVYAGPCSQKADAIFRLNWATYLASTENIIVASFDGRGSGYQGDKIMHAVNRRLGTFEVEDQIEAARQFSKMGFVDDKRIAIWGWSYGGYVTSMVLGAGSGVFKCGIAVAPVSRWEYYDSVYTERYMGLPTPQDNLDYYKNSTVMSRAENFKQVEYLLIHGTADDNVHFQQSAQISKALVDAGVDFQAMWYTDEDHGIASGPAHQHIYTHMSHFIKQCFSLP

CC#CCn1c(N2CCC[C@@H](N)C2)nc2c1c(=O)n(Cc1ncccc1C#N)c(=O)n2C [1-[(3-cyano-pyridin-2-yl)methyl]-3-methyl-7-(2-butyn-1-yl)-8-[3-(R)-amino-piperidin-1-yl]-xanthine monohydrochloride]
response vs control in vivo at 1 mg/animal [1]: 35.3% | response vs control in vivo at 3 mg/animal [1]: 23.3% | response vs control in vivo at 9 mg/animal (72 h, head 9 mg/animal (title 9.0 mg/animal), once daily oral 14 days, 72 h): 14.3% | response vs control in vivo at 1 mg/animal [2]: 63% | response vs control in vivo at 3 mg/animal [2]: 31.7% | response vs control in vivo at 9 mg/animal (120 h, head 9 mg/animal (title 9.0 mg/animal), once daily oral 14 days, 120 h): 17.7% | response vs control in vivo at 1 mg/animal [3]: 54% | response vs control in vivo at 3 mg/animal [3]: 41% | response vs control in vivo at 9 mg/animal (168 h, head 9 mg/animal (title 9.0 mg/animal), once daily oral 14 days, 168 h): 14.7% | response vs control in vivo at 1 mg/animal [4]: 57% | response vs control in vivo at 3 mg/animal [4]: 31.7% | response vs control in vivo at 9 mg/animal (216 h, head 9 mg/animal (title 9.0 mg/animal), once daily oral 14 days, 216 h): 15% | response vs control in vivo at 1 mg/animal [5]: 32.7% | response vs control in vivo at 3 mg/animal [5]: 19.3% | response vs control in vivo at 9 mg/animal (264 h, head 9 mg/animal (title 9.0 mg/animal), once daily oral 14 days, 264 h): 14% | response vs control in vivo at 1 mg/animal [6]: 61.3% | response vs control in vivo at 3 mg/animal [6]: 34% | response vs control in vivo at 9 mg/animal (312 h, head 9 mg/animal (title 9.0 mg/animal), once daily oral 14 days, 312 h): 17.3% | response vs control in vivo at 1 mg/animal [7]: 14% | response vs control in vivo at 3 mg/animal [7]: 9% | response vs control in vivo at 9 mg/animal (312.5 h, head 9 mg/animal (title 9.0 mg/animal), once daily oral 14 days, 312.5 h): 10% | response vs control in vivo at 1 mg/animal [8]: 14% | response vs control in vivo at 3 mg/animal [8]: 8.3% | response vs control in vivo at 9 mg/animal (313 h, head 9 mg/animal (title 9.0 mg/animal), once daily oral 14 days, 313 h): 7.7% | response vs control in vivo at 1 mg/animal [9]: 13.3% | response vs control in vivo at 3 mg/animal [9]: 8.7% | response vs control in vivo at 9 mg/animal (314 h, head 9 mg/animal (title 9.0 mg/animal), once daily oral 14 days, 314 h): 7.7% | response vs control in vivo at 1 mg/animal [10]: 14.7% | response vs control in vivo at 3 mg/animal [10]: 9.7% | response vs control in vivo at 9 mg/animal (316 h, head 9 mg/animal (title 9.0 mg/animal), once daily oral 14 days, 316 h): 8% | response vs control in vivo at 1 mg/animal [11]: 22.3% | response vs control in vivo at 3 mg/animal [11]: 12.3% | response vs control in vivo at 9 mg/animal (320 h, head 9 mg/animal (title 9.0 mg/animal), once daily oral 14 days, 320 h): 10.3% | response vs control in vivo at 1 mg/animal [12]: 32.3% | response vs control in vivo at 3 mg/animal [12]: 15% | response vs control in vivo at 9 mg/animal (324 h, head 9 mg/animal (title 9.0 mg/animal), once daily oral 14 days, 324 h): 12% | response vs control in vivo at 1 mg/animal [13]: 67.7% | response vs control in vivo at 3 mg/animal [13]: 31.3% | response vs control in vivo at 9 mg/animal (336 h, head 9 mg/animal (title 9.0 mg/animal), once daily oral 14 days, 336 h): 18.7% | time up to which mean DPP IV values remained ≦20% after 1st treatment (group II (1 mg per animal)): 8 h | time up to which mean DPP IV values remained ≦20% after the 14th treatment (group II (1 mg per animal)): 4 h | minimum mean DPP IV values after treatment on day 0 (group II (1 mg per animal), at 1 h): 9% | mean DPP IV activity, range 24 h after 3rd-13th treatment (72-312 h) (group II (1 mg/cat)): 33-63% | time up to which mean DPP IV values remained ≦20% after 1st treatment (group III (3 mg per animal)): 12 h | time up to which mean DPP IV values remained ≦20% after the 14th treatment (group III (3 mg per animal)): 12 h | minimum mean DPP IV values after treatment on day 0 (group III (3 mg per animal), at 2 and 4 h): 8% | mean DPP IV activity, range 24 h after 3rd-13th treatment (72-312 h) (group III (3 mg/cat)): 19-41% | time up to which mean DPP IV values remained ≦20% after 1st treatment (group IV (9 mg per animal)): 24 h | time up to which mean DPP IV values remained ≦20% after the 14th treatment (group IV (9 mg per animal)): 24 h | minimum mean DPP IV values after treatment on day 0 (group IV (9 mg per animal), at 1 and 2 h): 7% | mean DPP IV activity, range 24 h after 3rd-13th treatment (72-312 h) (group IV (9 mg/cat)): 14-18% | DPP IV activity in cat plasma (head 9 mg/animal (title 9.0 mg/animal), once daily oral 14 days, 312.5 h, monohydrochloride): 10.0%
